Structures are written as SMILES. “And” between values parts separate entries of the source, which are not always exact repeats. Equal values may be shown once.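 Dose response: 5 concentrations. Exposure: 48 h. Format: 96-well plates. Endpoint: linear interpolation; highest concentration if not reached. GI50 is the concentration that inhibits growth by half. At the TGI there is no net growth.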

Test systems include COLO 205 colon; HCC-2998 colon; HCT-116 colon; HOP-92 NSCLC; IGROV1 ovarian; MDA-MB-231 breast; NCI/ADR-RES ovarian; SN12C renal; SR leukemia; HOP-62 NSCLC.
Common to all, as to assay: DTP human tumour cell line panel, 48 h

For `COc1ccc(N=N/C(=N\NC(=O)c2cc(Br)ccc2O)c2ccc(N(CCC#N)CCC#N)cc2OC)cc1`, the GI50 (commonly the concentration that inhibits growth by half) is 50.6 µg/mL with COLO 205 colon; 28.7 µg/mL with HCC-2998 colon; 60.6 µg/mL in the assay with HCT-116 colon; 81.9 µg/mL in the assay on HOP-92 NSCLC; 39.6 µg/mL in the assay on IGROV1 ovarian; 70.8 µg/mL in the assay with MDA-MB-231 breast. Further, the GI50 is 42 µg/mL in the assay with NCI/ADR-RES ovarian, 77.6 µg/mL with SN12C renal and 62.8 µg/mL with SR leukemia. In addition, the TGI (in general, the concentration at which net growth stops) with COLO 205 colon is greater than 150 µg/mL; in the assay with HCC-2998 colon, 66.5 µg/mL; with HCT-116 colon, greater than 150 µg/mL; with HOP-92 NSCLC it was greater than 150 µg/mL; with IGROV1 ovarian, greater than 150 µg/mL; in the assay on MDA-MB-231 breast, greater than 150 µg/mL. Further, the TGI in the assay with NCI/ADR-RES ovarian, in the assay with SN12C renal and with SR leukemia was greater than 150 µg/mL throughout.
With `O=C(COc1cccc(/C=C2\COc3ccccc3C2=O)c1)c1ccccc1`, the GI50 was 2.93 µM with COLO 205 colon; 2.12 µM in the assay with HCT-116 colon; 5.24 µM with HOP-62 NSCLC; 2.94 µM in the assay on HOP-92 NSCLC; 2.18 µM in the assay with IGROV1 ovarian; 10.6 µM with MDA-MB-231 breast. Also, the figures for the GI50 in the assay on NCI/ADR-RES ovarian, in the assay with SN12C renal and in the assay on SR leukemia were 3.26 µM, 4.7 µM and 2.17 µM, respectively. For the same compound, the total growth inhibition concentration (TGI) in the assay with COLO 205 colon is 10.3 µM; in the assay on HCT-116 colon, 4.08 µM; with HOP-62 NSCLC it was 18.2 µM; with HOP-92 NSCLC, 16.8 µM; in the assay with IGROV1 ovarian, 3.96 µM; in the assay with MDA-MB-231 breast, 22.9 µM. Further, the figures for the TGI with NCI/ADR-RES ovarian, with SN12C renal and in the assay with SR leukemia were 11.8 µM, 19.8 µM and 6.66 µM, respectively.
Consider `CON=C1C[C@]2(C[C@@H]3C[C@@H](C/C=C(\C)C[C@@H](C)/C=C/C=C4\CO[C@@H]5[C@H](O)C(C)=C[C@@H](C(=O)O3)[C@]45O)O2)O[C@H](/C(C)=C/C(C)C)[C@H]1C`, for which the GI50 in the assay with COLO 205 colon is 13.7 µM; with HCC-2998 colon it was 12.1 µM; with HCT-116 colon, 5.44 µM; with HOP-62 NSCLC it was 15.5 µM; in the assay with HOP-92 NSCLC, 1.99 µM; with IGROV1 ovarian, 11.5 µM. Moreover, the GI50 with MDA-MB-231 breast was 11.2 µM; in the assay with NCI/ADR-RES ovarian, 14.4 µM; in the assay with SN12C renal, 14 µM; in the assay with SR leukemia it was 3.91 µM. The TGI in the assay on COLO 205 colon came out at 28.5 µM; with HCC-2998 colon it was 26.9 µM; with HCT-116 colon it was 19 µM; with HOP-62 NSCLC, 29 µM; in the assay with HOP-92 NSCLC, 11.8 µM; in the assay on IGROV1 ovarian, 23.9 µM. Further, the total growth inhibition concentration (TGI) worked out at 24.9 µM in the assay with MDA-MB-231 breast, 29 µM in the assay with NCI/ADR-RES ovarian, 28.3 µM in the assay on SN12C renal and 40.9 µM in the assay with SR leukemia.
Turning to `COc1cc(N2CCN(C(C)C)CC2)ccc1Nc1nc(Nc2ccc(F)cc2C(=O)NCC(O)CO)c2cc[nH]c2n1` (configuration not stated), the GI50 in the assay with COLO 205 colon was 0.526 µM; in the assay with HCC-2998 colon, 7.21 µM; with HCT-116 colon it was 1.69 µM; in the assay with HOP-62 NSCLC it was 4.09 µM; in the assay on HOP-92 NSCLC, 0.182 µM; in the assay on IGROV1 ovarian, 11.1 µM. Also, the GI50 in the assay with MDA-MB-231 breast is 13.6 µM; in the assay on NCI/ADR-RES ovarian, greater than 25 µM; with SN12C renal it was 7.62 µM; in the assay on SR leukemia, 1.13 µM. Also, the concentration for total growth inhibition (TGI) was greater than 9.9 µM with COLO 205 colon; greater than 25 µM in the assay on HCC-2998 colon; greater than 25 µM in the assay on HCT-116 colon; greater than 25 µM in the assay on HOP-62 NSCLC; 2.09 µM in the assay with HOP-92 NSCLC; greater than 25 µM in the assay with IGROV1 ovarian. The TGI in the assay with MDA-MB-231 breast is greater than 25 µM; with NCI/ADR-RES ovarian it was greater than 25 µM; in the assay on SN12C renal it was greater than 25 µM; with SR leukemia, greater than 14 µM.
For the compound `C=C[C@H]1CN2CCc3c([nH]c4c([C@@H]5CCCN5C)c(O)ccc34)[C@@H]2C[C@@H]1C[C@H]1c2[nH]c3ccccc3c2CCN1C`, the TGI in the assay on COLO 205 colon is 3.09 µM and 2.64 µM and 3.04 µM; with HCC-2998 colon it was 0.297 µM; in the assay on HCT-116 colon, 2.68 µM and 1.48 µM; in the assay with HOP-62 NSCLC it was 2.87 µM and 2.74 µM and 2.45 µM; with HOP-92 NSCLC, 2.76 µM and 2.91 µM; in the assay on IGROV1 ovarian it was 2.67 µM and 2.75 µM. Moreover, the TGI with MDA-MB-231 breast is 3.16 µM and 3.46 µM; with NCI/ADR-RES ovarian, 3.34 µM and 3.52 µM; in the assay on SN12C renal, 3.13 µM and 3.39 µM; with SR leukemia, 520 nM [middle of 4 runs]. Moreover, the GI50 in the assay on HCC-2998 colon was 0.142 µM; with HCT-116 colon, 1.13 µM; in the assay on SR leukemia, 0.161 µM and 0.197 µM.
Consider `CC1NC(C(=O)O)Cc2cc(O)c(O)cc21` (configuration not stated), for which the concentration for total growth inhibition (TGI) with COLO 205 colon, in the assay with HCC-2998 colon, in the assay with HCT-116 colon, in the assay with HOP-62 NSCLC, in the assay with HOP-92 NSCLC and in the assay on IGROV1 ovarian was greater than 100 µM in each case. Further, the TGI in the assay on MDA-MB-231 breast, in the assay on NCI/ADR-RES ovarian, in the assay with SN12C renal and with SR leukemia was greater than 100 µM in each case.
`CN(C)c1ccc(/C=C(\C#N)c2ccccc2)cc1`: the 50% growth inhibitory concentration (GI50) was 0.384 µM and 0.42 µM and 0.353 µM with COLO 205 colon; 1.31 µM and 3.24 µM and 1.62 µM with HCC-2998 colon; 0.384 µM and 0.441 µM and 0.414 µM in the assay with HCT-116 colon; 1.37 µM and 0.993 µM and 0.567 µM in the assay on HOP-62 NSCLC; 0.599 µM and 1.81 µM in the assay with IGROV1 ovarian; 1.66 µM and 1.97 µM in the assay with MDA-MB-231 breast. Moreover, the 50% growth inhibitory concentration (GI50) in the assay with NCI/ADR-RES ovarian is 0.348 µM and 0.395 µM and 0.324 µM; in the assay with SN12C renal, 0.553 µM and 0.788 µM and 0.764 µM; in the assay with SR leukemia, 0.0866 µM and 0.308 µM and 0.255 µM. The concentration for total growth inhibition (TGI) in the assay with COLO 205 colon is 2.32 µM and 5.35 µM and 2.76 µM; in the assay with HCC-2998 colon it was 31.7 µM and 57.4 µM and > 100 µM; in the assay with HCT-116 colon, > 60.6 µM and > 100 µM and 29.6 µM; in the assay with HOP-62 NSCLC, 59.9 µM and > 100 µM; in the assay on IGROV1 ovarian, greater than 100 µM; in the assay on MDA-MB-231 breast, 78.4 µM and 76.7 µM. The total growth inhibition concentration (TGI) was 49.9 µM and > 100 µM and 74.1 µM in the assay on NCI/ADR-RES ovarian; greater than 100 µM in the assay with SN12C renal; 19 µM and 37.6 µM in the assay with SR leukemia.
Regarding `CCCCCCCCCCCCNC(=O)N[C@H](C(=O)N[C@H]1/C=C/CCNC(=O)/C=C/[C@H](C)NC1=O)C(C)C`, the GI50 in the assay with COLO 205 colon is 0.0309 µM; in the assay with HCC-2998 colon, 0.0239 µM; with HCT-116 colon it was 0.0365 µM; in the assay with HOP-62 NSCLC, 0.0538 µM; in the assay with HOP-92 NSCLC it was 0.123 µM; in the assay with IGROV1 ovarian it was 0.06 µM. For the same compound, the 50% growth inhibitory concentration (GI50) was 0.0709 µM in the assay on MDA-MB-231 breast, greater than 100 µM in the assay on NCI/ADR-RES ovarian, 0.184 µM with SN12C renal and 0.0294 µM in the assay with SR leukemia. The concentration for total growth inhibition (TGI) stood at 0.109 µM in the assay on COLO 205 colon; 0.0562 µM in the assay with HCC-2998 colon; 0.163 µM with HCT-116 colon; 0.178 µM with HOP-62 NSCLC; 0.353 µM in the assay on HOP-92 NSCLC; 2.24 µM in the assay with IGROV1 ovarian. Moreover, the TGI is 0.277 µM with MDA-MB-231 breast, greater than 100 µM in the assay with NCI/ADR-RES ovarian, 0.591 µM in the assay on SN12C renal and 0.958 µM with SR leukemia.
